Experiments:
[1] = tested on: Tyr/Tet-RAS INK4a−/− mice; assay: Doxycycline-induced melanoma development in transgenic mice; assay type: in vivo, mouse; conditions: doxycycline in the drinking water from weaning
Excerpt: To develop a cancer model in which dominantly acting oncoproteins are somatically regulated in vivo, transgenic mouse lines harboring the reverse tetracycline transactivator^2 under the control of the tyrosinase gene promoter-enhancer elements (designated Tyr-rtTA) and another containing the H-RAS^V12G open reading frame driven by a minimal promoter containing multimerized tet-operons.^2,3 (designated Tet-RAS) were inter-crossed with INK4a+/− mice to generate cohorts of single and double transgenic mice (designated Tyr/Tet-RAS) homozygous null for INK4a. Upon weaning, a subset of single and double transgenic INK4a −/− mice were administered doxycycline in the drinking water^4. In the doxycycline-treated group, 10 of 40 Tyr/Tet-RAS INK4a−/− mice developed melanomas with an average latency of 60 days (FIG. 1A). […] The Tyr/Tet-RAS INK4a−/− melanomas shared all of the macroscopic features of the constitutive Tyr-RAS INK4a−/− melanomas 5, manifesting as amelanotic, invasive and highly vascular tumors—features reminiscent of nodular-type melanoma in humans (for example, see FIGS. 2A&B).
Production of the transgenic mice. The reverse tetracycline transactivator (rtTA) is a 1050 bp EcoRI/BamHI fragment isolated from pUHD172-1neo^2. The Tet promoter contains a XhoI/EcoRI fragment of CMV minimal promoter linked to the tet operator sequences^2. […]

[2] = tested on: Tyr/Tet-RAS INK4a−/− melanoma cell lines; assay: SCID explant tumorigenicity of melanoma cell lines; assay type: in vivo, mouse; conditions: SCID mice treated with doxycycline
Excerpt: To this end, we first assessed the impact of doxycycline withdrawal in different Tyr/Tet-RAS INK4a−/− tumor derived cell lines in cell culture. […] The derivative melanoma cell lines remained doxycycline-responsive as shown by their strict doxycycline-dependency for tumorigenic potential in SCID mice. Specifically, subcutaneous injection of purified Tyr/Tet-RAS INK4a−/− melanoma cell lines yielded tumors in SCID mice treated with doxycycline with 100% efficiency, while those mice not receiving doxycycline remained tumor-free after many months of observation (FIG. 3A). […] On the other hand, the data is also consistent with the possibility that tumor regression following doxycycline withdrawal may reflect a continued requirement for RAS in promoting and sustaining non-cell-autonomous tumor-host interactions that are essential for tumor growth and maintenance.
Primary tumors, derivative cell lines and SCID explant tumors. Transgenic mice were fed doxycycline drinking water (2 mg/ml sucrose water) and observed for spontaneous tumor development. Primary tumors were adapted to culture by mechanical mincing with sterilized razor blades and brief trypsinization and maintained on RPMI media containing 10% serum and supplemented with doxycycline (2 μg/ml media)^4. […]

Structure (SMILES): C[C@H]1c2cccc(O)c2C(=O)C2=C(O)[C@]3(O)C(=O)C(C(N)=O)=C(O)[C@@H](N(C)C)[C@@H]3[C@@H](O)[C@@H]21 [doxycycline]
- average latency of melanoma development [1]: 60 days
- efficiency of tumor formation after subcutaneous injection [2]: 100%

Source: patent US6639121B1, “Inducible cancer model to study the molecular basis of host tumor cell interactions in vivo” (Dana-Farber Cancer Institute, Inc., priority 1999, dated 2003)
